Source: US20250345277A1, “Ionizable Liposome, Preparation Thereof, and Application Thereof in Gene Delivery” (MAXIRNA (ZHEJIANG) TECHNOLOGY CO. LTD., priority 2021, published 2025)

Assays:
[1] = test system: Jurkat cells; assay: In vitro transfection of Jurkat cells with EGFP mRNA LNP preparation; format: cell-based, human
From the text: (§1) The description is based on peripheral blood mononuclear cells PBMC (Shanghai Oribiotech Co., Ltd.), human peripheral blood leukemia T cell Jurkat (ATCC), tumor infiltrating lymphocyte TIL (isolated from resected tumor tissue of a liver cancer patient, the preparation method refers to CN114763530A), mouse bone marrow-derived dendritic cells DC2.4 (Cell Bank of the Chinese Academy of Sciences), and Chinese hamster ovary cells CHO (ATCC) were used as verified cell lines for liposome transfection. PBMC, Jurkat, and TIL cells grew in suspension, while DC2.4 and CHO cells grew by adherent culture. All the operation steps of cell culture must strictly abide by the prescribed procedures, and sterile reagents is used to perform aseptic operations under a sterile workbench. The main steps are as follows: • 1) Cell recovery: the preserved cell cryopreservation solution was taken out of the −80° C. refrigerator, and was immediately put in a 37° C. water bath for rapid and continuous shaking, and was completely melted within one minute. […] The culture bottle was placed in a 5% CO2 incubator and incubated at 37° C., and the recovery time was recorded. • 2) Cell subculture: Under the microscope, if the cell density in the field of view reaches 80%-90%, the cells can be subcultured. […]

[2] = test system: TIL cells; assay: In vitro transfection of TIL cells with EGFP mRNA LNP preparation; format: cell-based, human
From the text: The description is based on peripheral blood mononuclear cells PBMC (Shanghai Oribiotech Co., Ltd.), human peripheral blood leukemia T cell Jurkat (ATCC), tumor infiltrating lymphocyte TIL (isolated from resected tumor tissue of a liver cancer patient, the preparation method refers to CN114763530A), mouse bone marrow-derived dendritic cells DC2.4 (Cell Bank of the Chinese Academy of Sciences), and Chinese hamster ovary cells CHO (ATCC) were used as verified cell lines for liposome transfection. PBMC, Jurkat, and TIL cells grew in suspension, while DC2.4 and CHO cells grew by adherent culture. All the operation steps of cell culture must strictly abide by the prescribed procedures, and sterile reagents is used to perform aseptic operations under a sterile workbench. The main steps are as follows: • 1) Cell recovery: the preserved cell cryopreservation solution was taken out of the −80° C. refrigerator, and was immediately put in a 37° C. water bath for rapid and continuous shaking, and was completely melted within one minute. Fresh medium was added to the 15 mL centrifuge tube in advance, and the cell solution was added to the centrifuge tube in a biological safety cabinet. A centrifuge tube of the same quality was taken and placed symmetrically in a centrifuge, centrifuged at a low speed at 1200 rpm for 5 min. After centrifugation, the supernatant was removed, and an appropriate amount of medium was slowly added along the tube wall. After the cells were evenly dispersed by blowing gently, the cell suspension was pipette and added to the culture bottle prepared in advance. The state and distribution of the cells in the early stage of recovery were observed under a microscope. The culture bottle was placed in a 5% CO2 incubator and incubated at 37° C., and the recovery time was recorded. • 2) Cell subculture: Under the microscope, if the cell density in the field of view reaches 80%-90%, the cells can be subcultured. Adherent cells need to be digested with trypsin. […]

[3] = test system: CHO cells; assay: In vitro transfection of CHO cells with EGFP mRNA LNP preparation; format: cell-based, Chinese hamster
From the text: as §1

[4] = after in vitro transfection, ApoE4 did not affect viability

CCCCCCCCCCCCC(O)CN(CCOCCN(CCOCCN(CC(O)CCCCCCCCCCCC)CC(O)CCCCCCCCCCCC)CCN1CCN(CCOCCN(CC(O)CCCCCCCCCCCC)CC(O)CCCCCCCCCCCC)CC1)CC(O)CCCCCCCCCCCC (stereo not shown) [B-C14]
cell viability by flow cytometry (FIG. 1) [1, 4]: high viability | transfection efficiency (FIG. 2) ([1]; in the absence of AopE4): high transfection efficiency | cell viability by flow cytometry (FIG. 1) [2, 4]: high viability | transfection efficiency (FIG. 2) ([2]; in the absence of AopE4): low transfection efficiency | change of transfection efficiency with ApoE4 (FIG. 3) ([2]; with ApoE4 versus without): increased | cell viability by flow cytometry (FIG. 1) ([3]; after in vitro transfection): high viability | transfection efficiency (FIG. 2) ([3]; in the absence of AopE4): high transfection efficiency
